Our source for the T/C values is PubChem BioAssay AID330 (DTP/NCI, 2004).

The test concerns P388 leukemia ip, CD2F1 mice, survival T/C. Briefly: NCI In Vivo Anticancer Drug Screen. Data for tumor model P388 Leukemia (intraperitoneal) in CD2F1 (CDF1) mice. The conditions noted are these: endpoint: median survival time, higher = longer survival. The method in brief:
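Mice carrying the transplanted tumor received test compound or vehicle. Survival was recorded in each group, and the value is the treated-group measurement divided by that of the vehicle-treated control group.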

The mark [1] stands for this setting: dose: 3.12 mg/kg/injection, schedule: Q01DX005 (ip), vehicle: Klucel (hydroxypropylcellulose) (HPC).
Where [2] appears, read: dose: 6.25 mg/kg/injection, schedule: Q01DX005 (ip), vehicle: Klucel (hydroxypropylcellulose) (HPC).
Where [3] appears, read: dose: 12.5 mg/kg/injection, schedule: Q01DX005 (ip), vehicle: Klucel (hydroxypropylcellulose) (HPC).
Where [4] appears, read: dose: 12.5 mg/kg/injection, schedule: Q01DX009 (ip), vehicle: Klucel (hydroxypropylcellulose) (HPC).
[5] abbreviates: dose: 25.0 mg/kg/injection, schedule: Q01DX009 (ip), vehicle: Klucel (hydroxypropylcellulose) (HPC).
Where [6] appears, read: dose: 50.0 mg/kg/injection, schedule: Q01DX009 (ip), vehicle: Klucel (hydroxypropylcellulose) (HPC).
Setting [7] is: dose: 100.0 mg/kg/injection, schedule: Q01DX009 (ip), vehicle: Klucel (hydroxypropylcellulose) (HPC).
Where [8] appears, read: dose: 120.0 mg/kg/injection, schedule: Q01DX005 (ip), vehicle: Klucel (hydroxypropylcellulose) (HPC).
[9] abbreviates: dose: 50.0 mg/kg/injection, schedule: Q01DX009 (ip), vehicle: saline.
Setting [10] is: dose: 100.0 mg/kg/injection, schedule: Q01DX009 (ip), vehicle: saline.
Where [11] appears, read: dose: 400.0 mg/kg/injection, schedule: Q01DX009 (ip), vehicle: saline.

Each structure is given as a SMILES string. Several values for one entry are separate records, joined by “and”; a condition that tells them apart may be missing. Equal values may be shown once. Toxic doses and inconclusive results are not listed.

As to `CCOC1NC(=O)Oc2ccccc21` (configuration not stated), the T/C was 100 % of control under setting [1]; 96 % of control under setting [2]; 103 % of control and 105 % of control under setting [3]; 96 % of control under setting [4]; 100 % of control and 105 % of control under setting [5]; 100 % of control and 103 % of control (2×) under setting [6]. Besides, the T/C is, setting by setting: (dose: 72.0 mg/kg/injection, schedule: Q01DX005 (ip), vehicle: Klucel (hydroxypropylcellulose) (HPC)) 94 % of control; under setting [7], 108 % of control and 109 % of control and 113 % of control; under setting [8], 102 % of control; (dose: 400.0 mg/kg/injection, schedule: Q01DX009 (ip), vehicle: Klucel (hydroxypropylcellulose) (HPC)) 200 % of control.
On to `CCCCCCCCCCCCCCCC[N+]1(CCC(C)C)CCOCC1`, for which the T/C reads like this: (dose: 100.0 mg/kg/injection, schedule: Q04DX002 (ip), vehicle: Klucel (hydroxypropylcellulose) (HPC)) 100 % of control; (dose: 200.0 mg/kg/injection, schedule: Q04DX002 (ip), vehicle: Klucel (hydroxypropylcellulose) (HPC)) 94 % of control; (dose: 400.0 mg/kg/injection, schedule: Q04DX002 (ip), vehicle: Klucel (hydroxypropylcellulose) (HPC)) 104 % of control.
As for `Cc1ccc(C2CNC(=S)S2)cc1` (configuration not stated), the T/C was 92 % of control (dose: 50.0 mg/kg/injection, schedule: Q01DX009 (ip), vehicle: DMSO); 98 % of control (dose: 100.0 mg/kg/injection, schedule: Q01DX009 (ip), vehicle: DMSO); 98 % of control (dose: 200.0 mg/kg/injection, schedule: Q01DX009 (ip), vehicle: DMSO).
For `N#CC1C(=O)NN=C1c1cc2ccccc2oc1=O` (configuration not stated), the T/C runs as follows: (dose: 100.0 mg/kg/injection, schedule: Q01DX001 (ip), vehicle: saline) 97 % of control; (dose: 200.0 mg/kg/injection, schedule: Q01DX001 (ip), vehicle: saline) 100 % of control; (dose: 400.0 mg/kg/injection, schedule: Q01DX001 (ip), vehicle: saline) 97 % of control.
Regarding `Nc1nc([Se]c2nc(N)nc3c2ncn3C2OC(CO)C(O)C2O)c2ncn(C3OC(CO)C(O)C3O)c2n1` (configuration not stated), the T/C runs as follows: (dose: 25.0 mg/kg/injection, schedule: Q01DX005 (ip), vehicle: distilled water + Tween-80) 150 % of control; (dose: 50.0 mg/kg/injection, schedule: Q01DX005 (ip), vehicle: distilled water + Tween-80) 161 % of control; (dose: 100.0 mg/kg/injection, schedule: Q01DX005 (ip), vehicle: distilled water + Tween-80) 156 % of control.
For the compound `Cc1cnc2ccccc2c1/C=C/c1ccc(N(C)C)cc1`, the T/C reads like this: (dose: 50.0 mg/kg/injection, schedule: Q01DX009 (ip), vehicle: saline with Tween-80) 124 % of control; (dose: 200.0 mg/kg/injection, schedule: Q01DX009 (ip), vehicle: saline with Tween-80) 153 % of control; (dose: 400.0 mg/kg/injection, schedule: Q01DX009 (ip), vehicle: saline with Tween-80) 120 % of control.
Regarding `N/C=N/O`, the T/C reads like this: (dose: 25.0 mg/kg/injection, schedule: Q01DX009 (ip), vehicle: saline) 101 % of control; under setting [9], 101 % of control; under setting [10], 111 % of control and 122 % of control; (dose: 174.0 mg/kg/injection, schedule: Q01DX009 (ip), vehicle: saline) 123 % of control; (dose: 260.0 mg/kg/injection, schedule: Q01DX009 (ip), vehicle: saline) 90 % of control; under setting [11], 161 % of control.
`CN(Cc1ccc(Nc2ccccc2)cc1)C1CCCCC1`: the T/C (dose: 50.0 mg/kg/injection, schedule: Q01DX009 (ip), vehicle: saline + Tween-80 + alcohol) was 103 % of control and 106 % of control; the T/C (dose: 100.0 mg/kg/injection, schedule: Q01DX009 (ip), vehicle: saline + Tween-80 + alcohol) was 110 % of control and 111 % of control; the T/C (dose: 200.0 mg/kg/injection, schedule: Q01DX009 (ip), vehicle: saline + Tween-80 + alcohol) was 109 % of control and 112 % of control; the T/C (dose: 400.0 mg/kg/injection, schedule: Q01DX009 (ip), vehicle: saline + Tween-80 + alcohol) was 114 % of control.
For `Cc1c(O)ccc(C(=O)C(=O)C(C)C)c1O`, the T/C is 115 % of control under setting [6]; 116 % of control under setting [7]; 116 % of control (dose: 200.0 mg/kg/injection, schedule: Q01DX009 (ip), vehicle: Klucel (hydroxypropylcellulose) (HPC)).
For the compound `COc1ccc2nccc3c2c1NC(Cl)=C3`, the T/C is, setting by setting: (dose: 60.0 mg/kg/injection, schedule: Q01DX005 (ip), vehicle: Klucel (hydroxypropylcellulose) (HPC)) 97 % of control; under setting [8], 103 % of control; (dose: 240.0 mg/kg/injection, schedule: Q01DX005 (ip), vehicle: Klucel (hydroxypropylcellulose) (HPC)) 97 % of control.
Turning to `CCCCCC(=O)NCC(=O)OC`, the T/C by setting is: (dose: 50.0 mg/kg/injection, schedule: Q01DX005 (ip), vehicle: saline) 100 % of control; (dose: 100.0 mg/kg/injection, schedule: Q01DX005 (ip), vehicle: saline) 101 % of control; (dose: 200.0 mg/kg/injection, schedule: Q01DX005 (ip), vehicle: saline) 100 % of control.
In the case of `Nc1nc(Sc2ccc([N+](=O)[O-])c3nonc23)c2[nH]cnc2n1`, the T/C under setting [4] is 115 % of control and the T/C under setting [5] was 88 % of control.
Turning to `CCCCCCCCCCCCC(=O)CCCCC(=O)OC1OCC23OC2C2CC(C)(C)CC2C2(C)CC123` (configuration not stated), the T/C is 105 % of control (dose: 10.0 mg/kg/injection, schedule: Q01DX005 (ip), vehicle: olive oil, sesame oil, peanut oil); 95 % of control (dose: 20.0 mg/kg/injection, schedule: Q01DX005 (ip), vehicle: olive oil, sesame oil, peanut oil); 101 % of control (dose: 40.0 mg/kg/injection, schedule: Q01DX005 (ip), vehicle: olive oil, sesame oil, peanut oil); 94 % of control (dose: 80.0 mg/kg/injection, schedule: Q01DX005 (ip), vehicle: olive oil, sesame oil, peanut oil).
Take `C=C(OC)C(Nc1cc(OC)c(OC)cc1C(=O)OC1CC(O[C@@H]2C(=O)C(NC(=O)OC)=C3/C(=C\CSSSC)[C@]2(O)C#C/C=C\C#C[C@@H]3OC2OC(C)C(NOC3CC(O)C(SC)C(C)O3)C(O)C2OC2CC(OC)C(NCCC)CO2)OC(C)C1O)OC` (some centres not stated): the T/C (dose: 1.28 micrograms/kg/injection, schedule: Q01DX005 (ip), vehicle: alcohol) is 163 % of control; the T/C (dose: 2.5 micrograms/kg/injection, schedule: Q01DX005 (ip), vehicle: saline + alcohol) was 88 % of control; the T/C (dose: 2.5 nanograms/kg/injection, schedule: Q01DX005 (ip), vehicle: saline + alcohol) was 120 % of control; the T/C (dose: 2.56 micrograms/kg/injection, schedule: Q01DX005 (ip), vehicle: alcohol) was 155 % of control and 177 % of control; the T/C (dose: 5.0 nanograms/kg/injection, schedule: Q01DX005 (ip), vehicle: saline + alcohol) was 118 % of control; the T/C (dose: 5.12 micrograms/kg/injection, schedule: Q01DX005 (ip), vehicle: alcohol) is 115 % of control. The T/C runs as follows: (dose: 10.0 nanograms/kg/injection, schedule: Q01DX005 (ip), vehicle: saline + alcohol) 123 % of control; (dose: 320.0 nanograms/kg/injection, schedule: Q01DX005 (ip), vehicle: saline + alcohol) 164 % of control; (dose: 640.0 nanograms/kg/injection, schedule: Q01DX005 (ip), vehicle: saline + alcohol) 174 % of control; (dose: 1280.0 nanograms/kg/injection, schedule: Q01DX005 (ip), vehicle: saline + alcohol) 95 % of control.
With `O=C([O][Sn]([O]C(=O)c1ccccc1)([c]1ccccc1)[c]1ccccc1)c1ccccc1`, the T/C reads like this: under setting [1], 111 % of control; under setting [2], 116 % of control and 123 % of control; under setting [3], 111 % of control and 123 % of control; (dose: 25.0 mg/kg/injection, schedule: Q01DX005 (ip), vehicle: Klucel (hydroxypropylcellulose) (HPC)) 151 % of control.
With `CC(=O)NC(C)C(C)(C)O` (configuration not stated), the T/C under setting [9] was 96 % of control; the T/C under setting [10] is 118 % of control; the T/C (dose: 200.0 mg/kg/injection, schedule: Q01DX009 (ip), vehicle: saline) is 105 % of control; the T/C under setting [11] was 105 % of control.
For the compound `O=NN(CCCl)C(=O)N(CCCl)C(=O)Oc1c(Cl)cc(Cl)cc1Cl`, the T/C is, setting by setting: (dose: 25.0 mg/kg/injection, schedule: Q01DX001 (ip), vehicle: saline with Tween-80) 122 % of control; (dose: 100.0 mg/kg/injection, schedule: Q01DX001 (ip), vehicle: saline with Tween-80) 150 % of control; (dose: 200.0 mg/kg/injection, schedule: Q01DX001 (ip), vehicle: saline with Tween-80) 179 % of control and 193 % of control; (dose: 400.0 mg/kg/injection, schedule: Q01DX001 (ip), vehicle: saline with Tween-80) 199 % of control.
